MIC90 and Ratio data for 22 molecules are collected here from ChEMBL document CHEMBL4325853, “Design, synthesis and antibacterial evaluation of 2,4-disubstituted-6-thiophenyl-pyrimidines” (Eur J Med Chem, 2019).

Format in all cases: functional
The subject of assay [1] is Staphylococcus aureus. The experiment in a line: Antibacterial activity against Staphylococcus aureus ATCC 29213 after 18 hrs by broth microdilution method. The settings on record: ATCC 29213, 18 h. For orientation: Dilution methods test growth across graded concentrations, often in twofold steps.
In assay [2] the test system is Enterococcus faecalis. Nature of the assay: Potency index, ratio of berberine MIC to test compound MIC for Enterococcus faecalis ATCC 29212.
In assay [3] the test system is Enterococcus faecalis. The experiment in a line: Antibacterial activity against Enterococcus faecalis ATCC 29212 after 18 hrs by broth microdilution method. The settings on record: ATCC 29212, 18 h.
In a further assay the test system is Escherichia coli. The experiment in a line: Antibacterial activity against Escherichia coli ATCC 25922 after 18 hrs by broth microdilution method. The following applies: ATCC 25922, 18 h.
The test system of assay [4] is Enterococcus faecium. Nature of the assay: Potency index, ratio of berberine MIC to test compound MIC for Enterococcus faecium ATCC 49624.
Assay [5] relates to Enterococcus faecium. Nature of the assay: Antibacterial activity against Enterococcus faecium ATCC 49624 after 18 hrs by broth microdilution method. The settings on record: ATCC 49624, 18 h.
Assay [6] deals with Staphylococcus aureus. The experiment in a line: Potency index, ratio of berberine MIC to test compound MIC for Staphylococcus aureus ATCC 29213.
In assay [7] the test system is Staphylococcus epidermidis. Nature of the assay: Potency index, ratio of berberine MIC to test compound MIC for Staphylococcus epidermidis ATCC 12228.
For assay [8], the system named is Staphylococcus epidermidis. The experiment in a line: Antibacterial activity against Staphylococcus epidermidis ATCC 12228 after 18 hrs by broth microdilution method. The settings on record: ATCC 12228, 18 h.
The next assay concerns Bacillus subtilis. The experiment in a line: Antibacterial activity against Bacillus subtilis 168 after 18 hrs by broth microdilution method. The following applies: subsp. subtilis str. 168, 18 h.

Structures are written as SMILES. Converted amounts (≈) assume the structure as drawn. Where only a bound is given, the exact number is not on record here.

As to `Fc1ccc(CN2CCCN(CCc3cc(-c4cccs4)nc(-c4ccncc4)n3)CC2)cc1F`, the MIC90 was found to be 4 µg/mL (≈ 8.14 µM) against Staphylococcus aureus [1]; 8 µg/mL (≈ 16.3 µM) against Enterococcus faecalis [3]; 128 µg/mL (≈ 260 µM) in the assay with Escherichia coli; 8 µg/mL (≈ 16.3 µM) against Enterococcus faecium [5]; 4 µg/mL (≈ 8.14 µM) in assay [8]; 4 µg/mL (≈ 8.14 µM) with Bacillus subtilis. The Ratio (with Enterococcus faecalis [2]; in the assay on Enterococcus faecium [4]; in the assay on Staphylococcus aureus [6]; in assay [7]) was 50 - 100 each time.
As to `Cc1nc(CCN2CCCN(Cc3ccc(F)cc3)CC2)cc(-c2cccs2)n1`, the MIC90 with Staphylococcus aureus [1] was 128 µg/mL (≈ 312 µM); in the assay on Enterococcus faecalis [3] it was 192 µg/mL (≈ 468 µM); in the assay with Escherichia coli, above 192 µg/mL; with Enterococcus faecium [5] it was 192 µg/mL (≈ 468 µM); in assay [8] it was 128 µg/mL (≈ 312 µM); against Bacillus subtilis, 128 µg/mL (≈ 312 µM).
Take `Cc1nc(CCNCCN2CCCCC2)cc(-c2cccs2)n1`: the MIC90 (in the assay on Staphylococcus aureus [1]; in the assay on Enterococcus faecalis [3]; against Escherichia coli; against Enterococcus faecium [5]; in [8]; against Bacillus subtilis) was above 192 µg/mL in each case.
In the case of `Cc1nc(CCN2CCNCC2)cc(-c2cccs2)n1`, the MIC90 (with Staphylococcus aureus [1]; in the assay on Enterococcus faecalis [3]; with Escherichia coli; against Enterococcus faecium [5]; in [8]; against Bacillus subtilis) was above 192 µg/mL each time.
Regarding `Cc1nc(CCNCCN2CCCC2)cc(-c2cccs2)n1`, the MIC90 (with Staphylococcus aureus [1]; against Enterococcus faecalis [3]; against Escherichia coli; against Enterococcus faecium [5]; in assay [8]; against Bacillus subtilis) was above 192 µg/mL in each case.
On to `Cc1nc(CCN2CCCN(Cc3cccc(F)c3)CC2)cc(-c2cccs2)n1`, for which the MIC90 is 128 µg/mL (≈ 312 µM) in the assay on Staphylococcus aureus [1]; 192 µg/mL (≈ 468 µM) against Enterococcus faecalis [3]; above 192 µg/mL against Escherichia coli; 192 µg/mL (≈ 468 µM) against Enterococcus faecium [5]; 128 µg/mL (≈ 312 µM) in assay [8]; 128 µg/mL (≈ 312 µM) with Bacillus subtilis.
As to `Cc1nc(CCN2CCCN(Cc3ccccc3)CC2)cc(-c2cccs2)n1`, the MIC90 with Staphylococcus aureus [1] is 192 µg/mL (≈ 489 µM); in the assay with Enterococcus faecalis [3], above 192 µg/mL; in the assay on Escherichia coli, above 192 µg/mL; against Enterococcus faecium [5], above 192 µg/mL; in [8], 192 µg/mL (≈ 489 µM); against Bacillus subtilis, 192 µg/mL (≈ 489 µM).
In the case of `Cc1nc(-c2cccs2)cc([C@H]2CN3CC[C@H]2C[C@@H]3CNC(=O)CCCC(=O)O)n1`, the MIC90 against Staphylococcus aureus [1] is 192 µg/mL (≈ 448 µM); against Enterococcus faecalis [3], above 192 µg/mL; against Escherichia coli, 384 µg/mL (≈ 896 µM); against Enterococcus faecium [5], above 192 µg/mL; in assay [8], 192 µg/mL (≈ 448 µM); against Bacillus subtilis, 192 µg/mL (≈ 448 µM).
In the case of `c1ccc(CN2CCCN(CCc3cc(-c4cccs4)nc(-c4ccncc4)n3)CC2)cc1`, the MIC90 against Staphylococcus aureus [1] is 16 µg/mL (≈ 35.1 µM); against Enterococcus faecalis [3] it was 32 µg/mL (≈ 70.2 µM); with Escherichia coli, above 128 µg/mL; in the assay on Enterococcus faecium [5], 32 µg/mL (≈ 70.2 µM); in [8], 16 µg/mL (≈ 35.1 µM); against Bacillus subtilis, 16 µg/mL (≈ 35.1 µM). In addition, the Ratio (in the assay on Enterococcus faecalis [2]; in the assay on Enterococcus faecium [4]; in the assay on Staphylococcus aureus [6]; in assay [7]) was 50 - 100 in each case.
Take `Cc1nc(CCN2CCN(C(=O)OC(C)(C)C)CC2)cc(-c2cccs2)n1`: the MIC90 (against Staphylococcus aureus [1]; against Enterococcus faecalis [3]; against Escherichia coli; against Enterococcus faecium [5]; in assay [8]; with Bacillus subtilis) was above 192 µg/mL each time.
On to `Cc1nc(CCN2CCCN(Cc3ccc(F)c(F)c3)CC2)cc(-c2cccs2)n1`, for which the MIC90 in the assay on Staphylococcus aureus [1] was 128 µg/mL (≈ 299 µM); against Enterococcus faecalis [3], 128 µg/mL (≈ 299 µM); in the assay with Escherichia coli, above 192 µg/mL; against Enterococcus faecium [5] it was 128 µg/mL (≈ 299 µM); in assay [8], 128 µg/mL (≈ 299 µM); in the assay with Bacillus subtilis it was 128 µg/mL (≈ 299 µM).
Turning to `Cc1nc(CCN2C[C@@H]3C[C@H]2CN3)cc(-c2cccs2)n1`, the MIC90 (in the assay with Staphylococcus aureus [1]; in the assay on Enterococcus faecalis [3]; in the assay on Escherichia coli; in the assay with Enterococcus faecium [5]; in assay [8]; against Bacillus subtilis) was above 192 µg/mL throughout.
With `Cc1nc(CCN2CCCN(Cc3ccc(C(C)(C)C)cc3)CC2)cc(-c2cccs2)n1`, the MIC90 amounted to 32 µg/mL (≈ 71.3 µM) against Staphylococcus aureus [1]; 64 µg/mL (≈ 143 µM) against Enterococcus faecalis [3]; 128 µg/mL (≈ 285 µM) in the assay on Escherichia coli; 64 µg/mL (≈ 143 µM) against Enterococcus faecium [5]; 32 µg/mL (≈ 71.3 µM) in assay [8]; 64 µg/mL (≈ 143 µM) in the assay with Bacillus subtilis.
With `Cc1ccc(CN2CCN(CCc3cc(-c4cccs4)nc(C)n3)CC2)cc1`, the MIC90 is 192 µg/mL (≈ 489 µM) in the assay with Staphylococcus aureus [1]; above 192 µg/mL in the assay on Enterococcus faecalis [3]; above 192 µg/mL in the assay with Escherichia coli; above 192 µg/mL against Enterococcus faecium [5]; 192 µg/mL (≈ 489 µM) in assay [8]; 192 µg/mL (≈ 489 µM) in the assay on Bacillus subtilis.
Consider `Cc1nc(CCN(C)CCN(C)Cc2ccccc2)cc(-c2cccs2)n1`, for which the MIC90 (against Staphylococcus aureus [1]; against Enterococcus faecalis [3]; with Escherichia coli; in the assay on Enterococcus faecium [5]; in assay [8]; against Bacillus subtilis) was above 192 µg/mL in each case.
On to `Fc1cccc(CN2CCCN(CCc3cc(-c4cccs4)nc(-c4ccncc4)n3)CC2)c1`, for which the MIC90 against Staphylococcus aureus [1] was 8 µg/mL (≈ 16.9 µM); in the assay with Enterococcus faecalis [3] it was 16 µg/mL (≈ 33.8 µM); against Escherichia coli, above 128 µg/mL; against Enterococcus faecium [5], 16 µg/mL (≈ 33.8 µM); in [8], 8 µg/mL (≈ 16.9 µM); against Bacillus subtilis, 8 µg/mL (≈ 16.9 µM). Moreover, the Ratio (in the assay on Enterococcus faecalis [2]; in the assay with Enterococcus faecium [4]; in the assay on Staphylococcus aureus [6]; in assay [7]) was 50 - 100 each time.
`Cc1nc(CCN2C[C@@H]3C[C@H]2CN3C(=O)OC(C)(C)C)cc(-c2cccs2)n1`: the MIC90 (in the assay on Staphylococcus aureus [1]; with Enterococcus faecalis [3]; in the assay with Escherichia coli; with Enterococcus faecium [5]; in assay [8]; with Bacillus subtilis) was above 192 µg/mL each time.
`Cc1nc(CCNCCN2CCOCC2)cc(-c2cccs2)n1`: the MIC90 (against Staphylococcus aureus [1]; against Enterococcus faecalis [3]; against Escherichia coli; in the assay with Enterococcus faecium [5]; in assay [8]; with Bacillus subtilis) was above 192 µg/mL in each case.
Take `Cc1nc(CCN2CCN(Cc3ccccc3)CC2)cc(-c2cccs2)n1`: the MIC90 (in the assay with Staphylococcus aureus [1]; against Enterococcus faecalis [3]; against Escherichia coli; with Enterococcus faecium [5]; in [8]; in the assay on Bacillus subtilis) was above 192 µg/mL in each case.
On to `Cc1nc(CCN2CCN(c3ccc(C(F)(F)F)cc3)CC2)cc(-c2cccs2)n1`, for which the MIC90 (in the assay with Staphylococcus aureus [1]; in the assay on Enterococcus faecalis [3]; against Escherichia coli; with Enterococcus faecium [5]; in assay [8]; against Bacillus subtilis) was above 192 µg/mL throughout.
Consider `Cc1nc(CCN2CCCN(Cc3ccccc3F)CC2)cc(-c2cccs2)n1`, for which the MIC90 with Staphylococcus aureus [1] was 192 µg/mL (≈ 468 µM); in the assay with Enterococcus faecalis [3], above 192 µg/mL; in the assay on Escherichia coli, above 192 µg/mL; against Enterococcus faecium [5], above 192 µg/mL; in assay [8] it was 192 µg/mL (≈ 468 µM); against Bacillus subtilis, 192 µg/mL (≈ 468 µM).
As to `Cc1nc(CCN2CCN(Cc3ccc(F)cc3)CC2)cc(-c2cccs2)n1`, the MIC90 against Staphylococcus aureus [1] was 192 µg/mL (≈ 484 µM); in the assay with Enterococcus faecalis [3], above 192 µg/mL; with Escherichia coli it was above 192 µg/mL; against Enterococcus faecium [5] it was above 192 µg/mL; in [8], 192 µg/mL (≈ 484 µM); against Bacillus subtilis, 192 µg/mL (≈ 484 µM).

As usually defined, the MIC90 is the lowest concentration that inhibits either 90% of growth or 90% of the strains tested, depending on the study.
